Measurements: patent US20230136297A1, “Methods Of Treating Fabry Disease In Patients Having A Mutation In The GLA Gene” (Amicus Therapeutics, Inc., priority 2020, published 2023)
Where a chain is given by its changes, count along the chain named.

How the values were obtained:
Test in all cases: α-Gal A activity in lysates of transfected HEK-293 cells ± migalastat (HEK assay)
Format in all cases: cell-based
[1] = target: T1, α-Gal A mutant form D182G (Homo sapiens, UniProt P06280, D182G)
T1 construct: expressed in transfected cells; host or cells: HEK-293
T1 sequence (P06280 32-429 D182G): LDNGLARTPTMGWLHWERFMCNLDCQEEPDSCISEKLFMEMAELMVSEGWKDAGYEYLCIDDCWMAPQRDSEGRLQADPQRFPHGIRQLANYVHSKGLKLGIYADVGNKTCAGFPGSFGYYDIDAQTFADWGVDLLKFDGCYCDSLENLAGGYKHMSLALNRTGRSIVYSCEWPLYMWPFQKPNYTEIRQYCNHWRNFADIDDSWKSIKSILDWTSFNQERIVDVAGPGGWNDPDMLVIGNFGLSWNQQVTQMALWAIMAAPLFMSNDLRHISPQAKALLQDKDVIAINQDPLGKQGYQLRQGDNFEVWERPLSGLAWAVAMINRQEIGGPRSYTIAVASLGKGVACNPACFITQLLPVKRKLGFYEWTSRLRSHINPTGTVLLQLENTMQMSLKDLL
Source text: (§1) Such mutations or variants are also referred to herein as “HEK assay amenable” mutations or variants.
(§2) The α-Gal A activity is expressed as the nmoles of free 4-MU released per milligram of protein per hour (nmol/mg/hr).

[2] = target: T2, α-Gal A mutant form G375A (Homo sapiens, UniProt P06280, G375A)
T2 construct: expressed in transfected cells; host or cells: HEK-293
T2 sequence (P06280 32-429 G375A): T1 sequence (P06280 32-429 D182G) with G151D, G344A
Source text: as §1, §2

[3] = target: T3, α-Gal A mutant form I303T (Homo sapiens, UniProt P06280, I303T)
T3 construct: expressed in transfected cells; host or cells: HEK-293
T3 sequence (P06280 32-429 I303T): T1 sequence (P06280 32-429 D182G) with G151D, I272T
Source text: as §1, §2

[4] = target: T4, α-Gal A mutant form L394P (Homo sapiens, UniProt P06280, L394P)
T4 construct: expressed in transfected cells; host or cells: HEK-293
T4 sequence (P06280 32-429 L394P): T1 sequence (P06280 32-429 D182G) with G151D, L363P
Source text: as §1, §2

[5] = target: T5, α-Gal A mutant form S276T (Homo sapiens, UniProt P06280, S276T)
T5 construct: expressed in transfected cells; host or cells: HEK-293
T5 sequence (P06280 32-429 S276T): T1 sequence (P06280 32-429 D182G) with G151D, S245T
Source text: as §1, §2

[6] = 10 μM migalastat minus baseline
[7] = HEK-293 lysates, 10 μM migalastat 5 days, mean ± SEM

Absolute increase (% WT) [1, 6]: 45.6 % WT
Relative increase ([1]; 10 μM migalastat ÷ baseline): 1.56
10 μM migalastat α-Gal A activity [1, 7]: 43772 ± 4156 nmol/mg/h
10 μM migalastat α-Gal A activity (% WT) [1, 7]: 129.6 ± 9.7 % WT
Absolute increase (% WT) [2, 6]: 12 % WT
Relative increase ([2]; 10 μM migalastat ÷ baseline): 1.23
10 μM migalastat α-Gal A activity [2, 7]: 24212 ± 1520 nmol/mg/h
10 μM migalastat α-Gal A activity (% WT) [2, 7]: 66.8 ± 2.4 % WT
Absolute increase (% WT) ([3]; 10 μM migalastat minus baseline, baseline BLD): 7.3 % WT
10 μM migalastat α-Gal A activity (% WT) ([3]; HEK-293 lysates, 10 μM migalastat 5 days, mean ± SEM, baseline BLD): 7.3 ± 1.4 % WT
10 μM migalastat α-Gal A activity ([3]; HEK-293 lysates, 10 μM migalastat 5 days, mean ± SEM, baseline BLD (<142 nmol/mg/hr)): 2809 ± 520 nmol/mg/h
Absolute increase (% WT) [4, 6]: 7.2 % WT
Relative increase ([4]; 10 μM migalastat ÷ baseline): 1.52
10 μM migalastat α-Gal A activity [4, 7]: 7749 ± 582 nmol/mg/h
10 μM migalastat α-Gal A activity (% WT) [4, 7]: 22.3 ± 2.4 % WT
Absolute increase (% WT) [5, 6]: 8.3 % WT
Relative increase ([5]; 10 μM migalastat ÷ baseline): 7.5
10 μM migalastat α-Gal A activity [5, 7]: 4104 ± 439 nmol/mg/h
10 μM migalastat α-Gal A activity (% WT) [5, 7]: 9.6 ± 0.9 % WT
SMILES: OC[C@H]1NC[C@H](O)[C@@H](O)[C@H]1O [migalastat, (2R,3S,4R,5S)-2-(hydroxymethyl) piperdine-3,4,5-triol]
